Measured values reported in ChEMBL document CHEMBL1201862, “PubChem BioAssay data set” (2004).
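Method: 48-hour compound exposure of cells in 96-well plates, five concentrations, linear interpolation of endpoints. GI50: concentration for 50% inhibition of growth.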 Calls of active or inactive are those of the source. Cut-off read from the data, not from the text of the source: active = GI50 up to about 1.1 µM and inactive = higher.

Tests used:
Assay in all cases: growth of human tumour cells (NCI), 48 h
[1] = tested on: HCT-116
[2] = tested on: SK-MEL-5
[3] = tested on: EKVX
[4] = tested on: COLO 205
[5] = tested on: UACC-62
[6] = tested on: XF498
[7] = tested on: SN12C
[8] = tested on: U-251
[9] = tested on: SF-268
[10] = tested on: SF-539
[11] = tested on: OVCAR-8
[12] = tested on: HL-60
[13] = tested on: SW-620
[14] = tested on: KM12
[15] = tested on: OVCAR-3
[16] = tested on: HOP-92
[17] = tested on: SNB-19
[18] = tested on: SK-MEL-2
[19] = tested on: Malme-3M
[20] = tested on: HOP-62

Measured: GI50

COCCOCOC(C)(C)[C@H](CCO)O[Si](c1ccccc1)(c1ccccc1)C(C)(C)C
inactive: [1] 3.67 µM | [2] 13.4 µM | [3] 13.5 µM | [4] 15.9 µM | [5] 12 µM | [6] 3.18 µM | [7] 3.34 µM | [8] 11 µM | [9] 7.13 µM | [10] 14.1 µM | [11] 10.4 µM | [12] 2.39 µM | [13] 11.2 µM | [14] 11.5 µM | [15] 10.2 µM | [16] 10.6 µM | [17] 13.2 µM | [18] > 10 µM | [19] 14.3 µM

O=C(NN1C(=O)CS(=O)(=O)C1c1ccc(C(F)(F)F)cc1)c1ccncc1 (stereo not drawn)
inactive: [1] > 100 µM | [2] > 100 µM | [4] > 100 µM | [20] > 100 µM | [6] > 100 µM | [7] > 100 µM | [8] > 100 µM | [9] > 100 µM | [12] > 100 µM | [13] > 100 µM | [14] > 100 µM | [16] > 100 µM | [17] > 100 µM | [18] > 100 µM | [19] > 100 µM

CN(C)C(CN)CC1=C(CC(CN)N(C)C)CCC1 (stereo not drawn)
inactive: [1] > 100 µM | [2] > 100 µM | [3] > 100 µM | [4] > 100 µM | [20] > 100 µM | [5] > 100 µM | [6] > 100 µM | [7] > 100 µM | [8] > 100 µM | [9] > 100 µM | [10] > 100 µM | [11] > 100 µM | [12] > 100 µM | [13] > 100 µM | [14] > 100 µM | [15] > 100 µM | [16] > 100 µM | [17] > 100 µM | [18] > 100 µM | [19] > 100 µM

CC1(C)N/C(=C\C=O)C(C)(C)N1O
inactive: [1] > 100 µM | [2] > 100 µM | [3] > 100 µM | [4] > 100 µM | [20] > 100 µM | [5] > 100 µM | [7] > 100 µM | [8] > 100 µM | [9] > 100 µM | [10] > 100 µM | [11] > 100 µM | [12] > 100 µM | [13] > 100 µM | [14] > 100 µM | [15] > 100 µM | [16] > 100 µM | [17] > 100 µM | [18] > 100 µM | [19] > 100 µM

COc1ccc(-c2c(C#N)c(NC(=S)NC(=O)c3ccccc3)nc3c2CCCC3)cc1OC
inactive: [1] > 100 µM | [2] 34.6 µM | [3] 24.5 µM | [4] > 100 µM | [20] 44.9 µM | [5] 44.5 µM | [7] 49 µM | [8] 71.1 µM | [9] 41.8 µM | [10] 30.2 µM | [11] 48.5 µM | [12] 34.1 µM | [13] 75.9 µM | [14] > 100 µM | [15] 99.5 µM | [17] 68.2 µM | [19] 29.8 µM

CC1(C)CCc2ccc(OCCC(=O)O)cc2O1
inactive: [1] > 100 µM | [2] > 100 µM | [3] > 100 µM | [4] > 100 µM | [20] > 100 µM | [5] > 100 µM | [7] > 100 µM | [8] > 100 µM | [9] > 100 µM | [10] > 100 µM | [11] > 100 µM | [12] > 100 µM | [13] > 100 µM | [14] > 100 µM | [15] > 100 µM | [16] > 100 µM | [18] > 100 µM | [19] > 100 µM

CCOC(=O)/C(O)=C1\C(=O)N(C)C(=O)C1c1ccc(OC)c(OC)c1 (stereo not drawn)
inactive: [1] > 100 µM | [2] > 100 µM | [3] > 100 µM | [4] > 100 µM | [20] > 100 µM | [5] > 100 µM | [6] > 100 µM | [7] > 100 µM | [8] > 100 µM | [9] > 100 µM | [10] > 100 µM | [11] > 100 µM | [12] > 100 µM | [13] > 31.6 µM | [14] > 100 µM | [15] > 100 µM | [16] > 100 µM | [17] > 100 µM | [18] > 100 µM | [19] > 100 µM
